Source: patent US6291199A, “Human phosphodiesterase type IVC, and its production and use” (Celltech Therapeutics Limited, priority 1994, dated 2001)
Read-outs that look alike come from different tables or passages of the source. Blank lines part the entries; values can stand above or below the molecule they belong to.

Columns and labels:
HL60 cells = test: RT.PCR of PDE IV isoform mRNAs in Bt2 cAMP stimulated HL60 cells; assay type: cell-based, human; details: HL-60 cells
Protocol: (§1) To identify a source of gene C mRNA, a number of cell lines were assayed for isoform mRNAs by reverse transcription coupled to polymerase chain reaction (RT.PCR). Total RNA was prepared using RNAzol (Biogenesis) and polyA+ mRNA selected by affinity chromatography using oligodT cellulose. 50 ng of first strand cDNA prepared by reverse transcriptase was amplified with the following pairs of gene specific primers for 40 cycles using the conditions, 94° C. 1 min, 55° C. 1 min, 72° C. 3 min.
(§2) The results of RT.PCR using the human gene primers to detect isoform mRNAs in both human tissue culture cells and rat tissues confirms that PDE IV mRNAs are widely distributed though the apparent levels of each isoform mRNA varies. Gene C mRNA appears to be more abundant than A,B, or D in cells derived from dorsal root ganglia and testes in rat. This latter result is consistent with data reported previously by Swinnen et al. (1989) ibid.

SKNSH cells = test: RT.PCR of PDE IV isoform mRNAs in Bt2 cAMP stimulated SKNSH cells; assay type: cell-based, human; details: SKN.SH cells
Protocol: as §1, §2

asthma = details: in vivo; cited from earlier work
[1] = system: beta 2 adrenergic receptor; details: CHO cells expressing human beta2 adrenergic receptor; isoproterenol 0.001-1 uM, 2 min
Description: Isolation of Human Beta 2 Adrenergic Receptor Gene.
The human beta 2 adrenergic receptor gene (Kobilka B. et al. (1987) J.Biol. Chem. 262 7321-7327) was isolated from HL-60 cells genomic DNA by PCR using the following primers: […]
The plasmid was named pRO1 44.

PDE IVA [2] = test: Inhibition of recombinant human PDE IVA (cAMP hydrolysis); assay type: biochemical; details: enzyme from CHO cell lysates
[3] = system: binding sites in the rodent forebrain tissue; details: Schmiechen et al.; Kaulen et al. 1989; cited from earlier work
PDE IVA [4] = test: Inhibition of recombinant human PDE IVA (cAMP hydrolysis); assay type: biochemical
Protocol: Isolation of cDNA Clones for Gene A
A partial cDNA for gene A was isolated by PCR from a cDNA library prepared from PMA stimulated U937 cells using published sequence information (Livi G. et al. (1990) ibid)). Subsequently a conserved region probe form this cDNA was used to isolate a full length cDNA clone from a human frontal cortex cDNA library by hybridisation and washing at moderate stringency (final wash 2×SSC, 0.5% SDS at 60° C.).
The full length gene for PDE IVA was introduced into pEE7 and pYES vectors for expression in COS and yeast cells respectively.
Recombinant PDE IV enzymes were produced in COS cells by transient expression as described by Whittle N. et al. [(1987) Prot. Engineering 1 499-505]. Briefly […] cells/ml were transfected with 10 ug of plasmid. After 3 days in culture cells were washed with PBS and lysed by brief sonciation in 50 mM TES buffer, pH 7.6, (N. tris[hydroxymethyl]methyl) 2-aminoethane sulphonic acid containing proteases inhibitors (50 uM leupeptin, 1 uM pepstatin, 1 um phenylmethylsulphonylfluoride, 2 uM benzamidine). The cell homogenate was centrifuged ×12000 g for 10 min. and assayed for PDE IV activity.
For expression of PDE IVA and C in yeast cells, the two genes were inserted into the vector pYES (InVitrogen) as either Hind3/Xba1 (gene A) or EcoR1 (gene C) fragments isolated from pDEFC17 and pDEU7 vectors respectively. The resulting plasmids were designated as pDEFC 32 and pDEU8 respectively. Yeast cells (B7542: alpha, ura-3,trp1+, Leu2delta, pep4: His3, prBdelta 1.6R can 1, gal) were transformed with pDEFC32 and pDEU8 vectors using the lithium acetate method (Ito H. et al. (1983) J.Bacteriol. 51 163-168). Ura3 positive prototrophs were isolated and grown at 30° C. to an OD600 =1.0 in minimal media containing 2% glucose and […] leucine. Cells were recovered by centrifugation, washed and resuspended at OD600 =0.5 in minimal media containing 2% galactose to induce PDE IV expression. At an OD600 =1.0 cells were harvested, washed and broken in TES buffer plus proteases (see above) by milling with glass beads (425-600 um) at 4° C. The homogenate was clarified by centrifugation at 100,000 g for 30 mins at 4° C.
Enzyme reactions were carried out at pH 7.6 in 50 mM TES buffer containing 10 mM MgCl2, 3',5' cAMP (0.1 uM ^3 H-labelled 0.74-1.1 TBq/mmol) 5'AMP (2.5 uM ^14 C, 1.85-2.2 GBq/mmol) for 30 min at 30° C. Sufficient enzyme preparation was added to hydrolyse not more than 20% of substrate under these conditions. […] Reactions were stopped by rapid inactivation of enzyme by addition of trifluoroacetic acid to a final concentration of 1%. Substrate and product of reaction were separated as described by Smith et al. [(1993) Analyt. Biochem. 214 355-357] and the [^3 H] 5'AMP product analysed by scintillation counting. Correction for losses of [^3 H] […] during separation was made by reference to [^14 C] 5'AMP included in the reaction mixture.

T lymphocytes = details: relative to other enantiomer; Sommer et al. 1995; cited from earlier work
recombinant PDE IV = details: Torphy et al. 1992; cited from earlier work
PDE IVA [5] = details: in situ, CHO + beta 2 adrenergic receptor + PDE IVA, 10 uM inhibitor
Protocol: Transfected cells were harvested with non-enzymatic cell dissociation reagent (Sigma) washed three times and re-suspended in Dulbecco's phosphate buffered saline containing 0.1% BSA and 0.1% glucose (DPBS+). The cells were incubated with 10 uM inhibitor (or solvent control, 0.1% DMSO) in DPBS+for 10 min at 37° C. The cell suspension was stimulated with isoproterenol (0.001-1 uM) for 2 min. The cells were pelleted at 12000 g and resuspended in 400 uL of boiling assay buffer 1s (DuPont cAMP measurement kit). The samples were heated in a boiling water bath for 10 min and frozen before being assayed for cAMP using a commercial cAMP radioimmunoassay (DuPont).

PDE IV B = details: read-out: IC50 for rolipram inhibition; literature; cited from earlier work
PDE IV D = details: read-out: IC50 for rolipram inhibition; literature; cited from earlier work
PDE IV A = details: read-out: IC50 for rolipram inhibition; literature; cited from earlier work

SMILES: CCCC(=O)Nc1ncnc2c1ncn2[C@@H]1O[C@@H]2COP(=O)(O)O[C@H]2[C@H]1OC(=O)CCC [Bt2 CAMP]
levels of PDE IV isoform mRNAs, in words (HL60 cells): levels of C and D but not A and B are elevated
levels of PDE IV isoform mRNAs, in words (SKNSH cells): levels of C and D but not A and B are elevated

SMILES: Cn1c(=O)c2[nH]cnc2n(C)c1=O [theophylline]
effect in asthma, in words (asthma): has been shown to have a therapeutic effect

cAMP levels, in words [1]: dose-dependent increase in cAMP levels
SMILES: CC(C)NCC(O)c1ccc(O)c(O)c1 (stereo not drawn) [isopreterenol]

SMILES: COc1ccc([C@@H]2CNC(=O)C2)cc1OC1CCCC1 [R-rolipram]
IC50 (PDE IVA [2]): 251 nM
affinity for binding sites over S-rolipram, in words [3]: higher affinity
IC50 (PDE IVA [4]; enzyme from COS cells, read-out: IC50, PDE IVA): 292 nM
IC50 (PDE IVA [4]; enzyme from yeast, read-out: IC50, Yeast, A): 298 nM
effectiveness in suppression of TNF release (T lymphocytes): approximately 50 times

IC50 (PDE IVA [2]): 287 nM
SMILES: COc1ccc(C2CNC(=O)C2)cc1OC1CCCC1 (racemic) [Rolipram]
high affinity binding of rolipram, in words (recombinant PDE IV): stereoselectivity for high affinity binding
reversal by rolipram of the prevention of cAMP accumulation, in words (PDE IVA [5]): reversed
IC50 (PDE IV B): 200 to 500 nM
IC50 (PDE IV D): 200 to 500 nM
IC50 (PDE IV A): 200 to 500 nM
